Structures are written as SMILES. Some results are limits rather than exact numbers.

The subject of data set [1] is human PCSK9. In words: PCSK9 AlphaLISA assay, PCSK9 lowering in WT7 cells. The following applies: WT7 cells (Huh7 stably over-expressing human PCSK9); secreted PCSK9 by AlphaLISA; overnight incubation (16-24 h); top concentration 20 μM; read-out: Cell Based PCSK9 IC50. From the text: An in-vitro AlphaLISA assay (Perkin Elmer) was developed in order to quantitate the level of PCSK9 secreted into the cell culture media following compound treatment. To detect and measure PCSK9 protein an in-house generated anti-PCSK9 antibody was coupled to AlphaLISA acceptor beads by an external vendor (PerkinElmer) and a second internally developed anti-PCSK9 antibody with an epiptope distinct from that of the acceptor beads was biotinylated in house. Streptavidin coated-donor beads (Perkin Elmer) are also included in the assay mixture which then binds the biotinylated anti-PCSK9 antibody and in the presence of PCSK9 this donor complex and acceptor beads are brought into close proximity. […] The ability of compound to modulate PCSK9 protein levels in conditioned media by AlphaLISA was assessed in the human hepatocellular carcinoma cell line Huh7, stably over-expressing human PCSK9. […] Following plasmid transfection the stable WT7 clone was identified and maintained under Zeocin selection. Compound screening was performed in 384-well plates where WT7 cells were plated at a density of 7500 cells per well in 20 μL of tissue culture media containing compound in an eleven point, 0.5 log dilution format at a high treatment concentration of 20 μM in a final volume of 0.5% DMSO. In additional to these test compound conditions each screening plate also included wells that contained 20 μM puromycin as a positive assay control defined as high percent effect, HPE, as well as wells containing media in 0.5% DMSO as a negative treatment control defined as zero percent effect, ZPE. After overnight compound incubation (16-24 h) the tissue culture media was collected and an aliquot from each sample was transferred to individual wells of a 384-well white Optiplate (Perkin Elmer). The coupled antibodies and donor beads were added to the assay plates in a buffer composed of 30 mM Tris pH 7.4, 0.02% Tween-20 and 0.02% Casein. Anti-PCSK9 acceptor beads (final concentration of 10 μg/mL) and anti-PCSK9 biotinylated antibody (final concentration of 3 nM) were added and incubated for 30 minutes at room temperature followed by the addition of the streptavidin donor beads (final concentration 40 μg/mL) for an additional 60 minutes. Additionally a standard curve was generated where AlphaLISA reagents were incubated in wells spiked with recombinant human PCSK9 diluted in tissue culture media from 5000 ng/mL to 0.6 ng/mL. […] The test compound data were converted into percent effect, using the ZPE and HPE controls as 0% and 100% activity, respectively. The equation used for converting each well reading into percent effect was:
[formula] IC50 was then calculated and reported as the midpoint in the percent effect curve in molar units and the values are reported under the Cell Based PCSK9 IC50 (μM) column header within Table 1 Biological Data. Additionally, to monitor the selectivity of compound response for PCSK9 the level of a second secreted protein, Transferrin, was measured from the same conditioned media treated with test compound by AlphaLISA. […] To detect and quantify effects on Transferrin 0.01 mL of the culture media was transferred to a 384-well white Optiplate and 0.01 mL of media was added to bring the volume to 0.02 ml. Anti-Transferrin acceptor beads were added to a final concentration of 10 μg/mL, biotinylated anti-Transferrin at 3 nM and streptavidin donor beads at 40 μg/mL. Percent effect and IC50 for Transferrin was computed in a similar manner as that described for PCSK9.
For orientation: In Alpha technology, singlet oxygen from a donor bead excites a nearby acceptor bead.

Data set [2] has as its system PCSK9. In words: PCSK9 lowering in sandwich culture human hepatocytes (SCHH). Type of data set: cell-based. The following applies: maximum response versus vehicle. As to the method:
Test compound in-vitro pharmacokinetic and pharmacodynamic relationships were measured in sandwich culture primary cryopreserved human hepatocytes. Within these studies SCHH cells (BD Biosciences IVT) were thawed at 37° C. then placed on ice, after which the cells were added to pre-warmed (37° C.) In VitroGRO-HT media and centrifuged at 50×g for 3 min. The cell pellet was re-suspended to 0.8×10^6 cells/mL in InVitroGRO-CP plating medium and cell viability determined by trypan blue exclusion. On day 1, hepatocyte suspensions were plated in BioCoat 96-well plates at a density of 80000 cells/well in a volume of 0.1 mL/well. After 18 to 24 hours of incubation at 37° C. in 5% CO2, cells were overlaid with ice-cold 0.25 mg/mL BD Matrigel Matrix Phenol Red-Free in incubation medium at 0.1 mL/well. Cultures were maintained at 37° C. in 5% CO2 in InVitroGRO-HI (FBS-free media), which was replaced every 24 hours and time course treatments were initiated on day 5. Prior to compound treatment cell plates were washed 3 times with 0.1 mL/well InVitroGRO-HI and 0.09 mL of media was added back in preparation for the compound additions. 1 uL of either DMSO or compound DMSO stocks at 30 mM, 10 mM, 3 mM and 1 mM were stamped into 96 well V bottom polypropylene plates. 0.099 mL of media was added to the compound plate and mixed thoroughly before the addition of 0.010 mL from the interim compound plate to the cell plate. […] At the indicated time, 0.08 mL of media was removed from the cell plates and frozen for subsequent analysis of secreted PCSK9 by AlphaLISA and for determination of drug levels in the media by liquid chromatography-tandem mass spectrometry (LC-MS/MS). The remaining media was then aspirated and the cell layers were washed 3× with ice cold Hanks Balanced Salt Solution (HBSS) under shaking conditions to remove the matrigel overlay and plates were then stored at −20° C. for subsequent determination of drug levels in the cells by LC-MS/MS. AlphaLISA determination of PCSK9 protein levels within the conditioned media was performed ultilizing the identical reagents and detection protocols described above for the WT7 cells.

Data set [3] has as its system human PCSK9. Put plainly: Cell Free PCSK9 Assay (PCSK9-luciferase RNA translated in HeLa cell lysate). As to conditions: 30° C. for 45 minutes, luciferase readout, top concentration 100 μM. Type of data set: biochemical. As to the method:
In order to eliminate the permeability barrier inherent to the WT7 and SCHH cell-based assays a cell-free system was also established to access compound activity. […] The construct was then in-vitro transcribed using the MEGAscript T7 Kit (Life Technologies) and RNA subsequently purified incorporating the MEGAclear Kit (Life Technologies) according to manufacturer's protocols. […] Growth was in a 50 L wavebag at a rocker speed of 25 rpm and angle 6.1 with 5% CO2 and 0.2 LPM flow rate with cells harvested at a density of 2-2.5e6/ml. Lysates additionally contained 1 tablet of Roche cOmplete-EDTA protease inhibitors per 50 ml with tris(2-carboxyethyl)phosphine (Biovectra) substituted for dithiothreitol, and were clarified by an additional final centrifugation at 10,000 rpm in a Sorvall SS34 rotor at 4° C. for 10 minutes. Compound screening was performed in 384-well plates in an eleven point, 0.5 log dilution format at a top test compound concentration of 100 μM in a final volume of 0.5% DMSO. […] Upon assay completion 1 μL from each reaction solution was removed and transferred to a second 384-well Optiplate (Perkin Elmer) containing 24 μL of SteadyGlo (Promega) and signal intensity was measured on the Envision (Perkin Elmer) using the enhanced luminescence protocol. […] The test compound data were converted into percent effect, using the ZPE and HPE controls as 0% and 100% activity, respectively, applying Equation 1 above. IC50 was then calculated and reported as the midpoint in the percent effect curve in molar units and the values are reported under the Cell Free PCSK9 IC50 (μM) column header within Table 1 Biological Data.

Turning to `CCC(=O)OC(CC)n1nnc(-c2c(-c3ccc(C(=O)N(c4ncccc4C)[C@@H]4CCCNC4)cc3)cnn2C)n1` (single isomer, unassigned) [Example 47], in data set [1], the IC50 (as a rule, the midpoint of a concentration-inhibition curve) was over 20 µM. The “Sandwich Culture Hepatocyte (SCHH) PCSK9 Lowering” value in data set [2] (at 6 h at 30 uM) is 12% at 6 h at 30 uM. With `O=C(c1ccc(-c2cnn3cccnc23)cc1)N(c1ncccc1Cl)[C@@H]1CCCNC1` [Example 2, N-(3-chloropyridin-2-yl)-N-[(3R)-piperidin-3-yl]-4-(pyrazolo[1,5-a]pyrimidin-3-yl)benzamide], the IC50 in data set [1] came to 1.7 µM; in data set [3], 0.69 µM. For `Cn1ncc(-c2ccc(C(=O)N(c3nccc4ccccc34)[C@@H]3CCCNC3)cc2)c1C(=O)O` [Example 4, 4-(4-{isoquinolin-1-yl[(3R)-piperidin-3-yl]carbamoyl}phenyl)-1-methyl-1H-pyrazole-5-carboxylic acid], in that order: over 20 µM and 3.8 µM. With `CCOC(=O)OC(C)OC(=O)c1c(-c2ccc(C(=O)N(c3nccc4ccccc34)[C@@H]3CCCNC3)cc2)cnn1C` (stereo partly drawn) [Example 11, 1-[(ethoxycarbonyl)oxy]ethyl 4-(4-{isoquinolin-1-yl[(3R)-piperidin-3-yl]carbamoyl}phenyl)-1-methyl-1H-pyrazole-5-carboxylate], the midpoint of inhibition in data set [3], the IC50, lay at 2.1 µM.

Consider `CCOC(=O)OC(C)OC(=O)c1c(-c2ccc(C(=O)N(c3nccc4ccn(C)c34)[C@@H]3CCCNC3)cc2)cnn1C` (stereo partly drawn) [Example 14, 1-[(ethoxycarbonyl)oxy]ethyl 1-methyl-4-(4-{(1-methyl-1H-pyrrolo[2,3-c]pyridin-7-yl)[(3R)-piperidin-3-yl]carbamoyl}phenyl)-1H-pyrazole-5-carboxylate], for which the IC50 in data set [1] was found to be 4.5 µM. Also, the “Sandwich Culture Hepatocyte (SCHH) PCSK9 Lowering” value in data set [2] (at 8 h at 30 μM) is 54% at 8 h at 30 μM.

`CCOC(=O)OC(C)n1nnnc1-c1c(-c2ccc(C(=O)N(c3ncccc3C)[C@@H]3CCCNC3)cc2)cnn1C` (stereo partly drawn) [Example 21]: in data set [1], the half-inhibitory concentration (IC50) was over 20 µM. For the same compound, the “Sandwich Culture Hepatocyte (SCHH) PCSK9 Lowering” value in data set [2] (at 6 h at 30 uM) worked out at 57% at 6 h at 30 uM.

With `Cn1ncc(-c2ccc(C(=O)N(c3ncccc3Cl)[C@@H]3CCCNC3)cc2)c1C(=O)NS(=O)(=O)C(F)(F)F` [Example 22, 4-(4-{(3-chloropyridin-2-yl)[(3R)-piperidin-3-yl]carbamoyl}phenyl)-1-methyl-N-[(trifluoromethyl)sulfonyl]-1H-pyrazole-5-carboxamide], the IC50 was over 20 µM in data set [1] and 5.8 µM in data set [3].

As to `Cn1ncc(-c2ccc(C(=O)N(c3ncccc3Cl)[C@@H]3CCCNC3)cc2)c1C(=O)Nc1nnn[nH]1` [Example 24, 4-(4-{(3-chloropyridin-2-yl)[(3R)-piperidin-3-yl]carbamoyl}phenyl)-1-methyl-N-(1H-tetrazol-5-yl)-1H-pyrazole-5-carboxamide], the IC50 in data set [1] is over 20 µM; in data set [3], 25.3 µM.

With `Cn1ncc(-c2ccc(C(=O)N(c3ncccc3Cl)[C@@H]3CCCNC3)cc2)c1C(=O)NO` [Example 25, 4-(4-{(3-chloropyridin-2-yl)[(3R)-piperidin-3-yl]carbamoyl}phenyl)-N-hydroxy-1-methyl-1H-pyrazole-5-carboxamide], the IC50 in data set [1] is over 20 µM; in data set [3], 2.97 µM. With `Cn1ncc(-c2ccc(C(=O)N(c3ncccc3Cl)[C@@H]3CCCNC3)cc2)c1-c1nn[nH]n1` [Example 26, N-(3-chloropyridin-2-yl)-4-[1-methyl-5-(2H-tetrazol-5-yl)-1H-pyrazol-4-yl]-N-[(3R)-piperidin-3-yl]benzamide], the 50% inhibitory concentration (IC50) in data set [1] is over 20 µM; in data set [3], 5.75 µM.

Consider `Cn1ncc(-c2ccc(C(=O)N(c3ncccc3Cl)[C@@H]3CCCNC3)cc2)c1C(=O)NS(C)(=O)=O` [Example 27, 4-(4-{(3-chloropyridin-2-yl)[(3R)-piperidin-3-yl]carbamoyl}phenyl)-1-methyl-N-(methylsulfonyl)-1H-pyrazole-5-carboxamide], for which the IC50 in data set [1] was over 20 µM; in data set [3], 14.3 µM. The corresponding values for `Cc1cccnc1N(C(=O)c1ccc(-c2cnn(C)c2C(=O)NS(C)(=O)=O)cc1)[C@@H]1CCCNC1` [Example 28, 1-methyl-4-(4-{(3-methylpyridin-2-yl)[(3R)-piperidin-3-yl]carbamoyl}phenyl)-N-(methylsulfonyl)-1H-pyrazole-5-carboxamide] are over 20 µM and 16.8 µM. As to `CCOC(=O)OC(C)N(C(=O)c1c(-c2ccc(C(=O)N(c3ncccc3C)[C@@H]3CCCNC3)cc2)cnn1C)S(C)(=O)=O` (stereo partly drawn) [Example 29, ethyl 1-[{[1-methyl-4-(4-{(3-methylpyridin-2-yl)[(3R)-piperidin-3-yl]carbamoyl}phenyl)-1H-pyrazol-5-yl]carbonyl}methylsulfonyl)amino]ethyl carbonate], the half-maximal inhibitory concentration (IC50) in data set [1] is over 20 µM. In data set [2] (at 6 h at 30 uM), the “Sandwich Culture Hepatocyte (SCHH) PCSK9 Lowering” value was 72% at 6 h at 30 uM.

With `CCOC(=O)O[C@@H](C)n1nnc(-c2c(-c3ccc(C(=O)N(c4ncccc4C)[C@@H]4CCCNC4)cc3)cnn2C)n1` [Example 30, ethyl (1S)-1-{5-[1-methyl-4-(4-{(3-methylpyridin-2-yl)[(3R)-piperidin-3-yl]carbamoyl}phenyl)-1H-pyrazol-5-yl]-2H-tetrazol-2-yl}ethyl carbonate], in data set [1], the concentration for half-maximal inhibition (IC50) was over 16.7 µM. The “Sandwich Culture Hepatocyte (SCHH) PCSK9 Lowering” value in data set [2] (at 8 h at 30 μM) came out at 11% at 8 h at 30 uM.

Source of the values: patent US9227956B2 (Pfizer Inc., priority 2013, dated 2016).
